The nature of test [1]: Cytotoxicity against human MCF7/DX cells incubated for 48 hrs by MTT assay. In kind it is cell-based. A general note: Tetrazolium dyes change colour on reduction, which living cells bring about.
Test [2] can be described thus: Reversal of multidrug resistance in human MCF7/DX cells assessed as potentiation doxorubicin-induced cytotoxicity by measuring reduction in doxorubicin IC50 level at 30 uM incubated for 48 hrs by MTT assay relative to untreated control. In kind it is functional.
Test [3] in a line: Reversal of multidrug resistance in human MCF7/DX cells assessed as potentiation doxorubicin-induced cytotoxicity by measuring reduction in doxorubicin IC50 level at 5 uM incubated for 48 hrs by MTT assay relative to untreated control. It counts as functional.

Molecules are shown by their SMILES.

Usually IC50 stands for the concentration that gives 50% inhibition. Lower therefore signals greater potency in that assay. Regarding `Cc1ccc2c(c1)[C@H](C(C)C)CC[C@]21C[C@H](CC(C)C)C2=C(O1)C(C)(C)C(=O)C(C)(C)C2=O`, the 50% inhibitory concentration (IC50) in test [1] was > 30 µM. Moreover, the “fold change (FC)” value in test [2] is 0.9.

`CC(C)C[C@H]1C[C@@]2(CC[C@]3(C(C)C)C[C@H]23)OC2=C1C(=O)C(C)(C)C(=O)C2(C)C`: the IC50 in test [1] was > 30 µM. Besides, the “fold change (FC)” value in test [2] is reported as 1.

Take `C=C[C@]1(CCC=C(C)C)C[C@@H](CC(C)C)C2=C(O1)C(C)(C)C(=O)C(C)(C)C2=O`: the half-inhibitory concentration (IC50) in test [1] is > 30 µM. The “fold change (FC)” value in test [2] worked out at 7.4.

As for `C=C[C@]1(CCC=C(C)C)C[C@H](CC(C)C)C2=C(O1)C(C)(C)C(=O)C(C)(C)C2=O`, the IC50 in test [1] is > 30 µM. In addition, the “fold change (FC)” value in test [2] came to 16.5.

Take `CC(C)C[C@@H]1C[C@]2(CC[C@]3(C(C)C)C[C@H]23)OC2=C1C(=O)C(C)(C)C(=O)C2(C)C`: in test [1], the IC50 is > 30 µM. The “fold change (FC)” value in test [2] is on record as 1.2.

`CC(C)C[C@@H]1C[C@@]2(CC[C@]3(C(C)C)C[C@H]23)OC2=C1C(=O)C(C)(C)C(=O)C2(C)C`: the concentration for half-maximal inhibition (IC50) in test [1] was > 30 µM. Further, in test [2], the “fold change (FC)” value amounted to 4.5.

For `CC(C)C[C@H]1C[C@]2(CC[C@]3(C(C)C)C[C@H]23)OC2=C1C(=O)C(C)(C)C(=O)C2(C)C`, in test [1], the IC50 is > 30 µM. For the same molecule, the “fold change (FC)” value in test [2] turned out to be 5.6.

As to `C=C[C@@]1(CCC=C(C)C)C[C@@H](CC(C)C)C2=C(O1)C(C)(C)C(=O)C(C)(C)C2=O`, the concentration for half-maximal inhibition (IC50) in test [1] was > 30 µM. Besides, in test [2], the “fold change (FC)” value is 4.7.

For `COc1ccc(CCN(C)CCCC(C#N)(c2ccc(OC)c(OC)c2)C(C)C)cc1OC` (centres undefined), the “fold change (FC)” value in test [3] came to 5.4.

Turning to `C=C[C@@]1(CCC=C(C)C)C[C@H](CC(C)C)C2=C(O1)C(C)(C)C(=O)C(C)(C)C2=O`, the IC50 in test [1] was > 30 µM. The “fold change (FC)” value in test [2] is reported as 10.1.
